Experimental data: patent US12384792B2, “Solid forms of isoquinolinones, and process of making, composition comprising, and methods of using the same” (Twelve Therapeutics, Inc., priority 2015, dated 2025)
≈ marks a conversion by molar mass, not a printed value. Where two headings read alike, the source gives them in different places. Blank lines part the entries; values can stand above or below the compound they belong to.

Assays:
Assay type in all cases: physicochemical
[1] = Gravimetric vapour sorption (GVS); settings: for GVS total weight change 0-90% RH: 25° C.
Description: Gravimetric Vapour Sorption (GVS)
Sorption isotherms were obtained using a SMS DVS Intrinsic moisture sorption analyser, controlled by DVS Intrinsic Control software v1.0.1.2 (or v 1.0.1.3). The sample temperature was maintained at 25° C. by the instrument controls. The humidity was controlled by mixing streams of dry and wet nitrogen, with a total flow rate of 200 ml/min The relative humidity was measured by a calibrated Rotronic probe (dynamic range of 1.0-100% RH), located near the sample. The weight change, (mass relaxation) of the sample as a function of % RH was constantly monitored by the microbalance (accuracy ±0.005 mg). Typically 5-20 mg of sample was placed in a tared mesh stainless steel basket under ambient conditions. The sample was loaded and unloaded at 40% RH and 25° C. (typical room conditions). A moisture sorption isotherm was performed as outlined below (2 scans giving 1 complete cycle). The standard isotherm was performed at 25° C. at 10% RH intervals over a 0-90% RH range. Data analysis was carried out using Microsoft Excel using DVS Analysis Suite v6.2 (or 6.1 or 6.0).

[2] = Static stability on storage at controlled temperature/RH (XRPD, purity)
Source text: (§1) See tables below for the summarized results.

[3] = Static storage stability of solid forms (40° C./75% RH, 25° C./96% RH), form checked by XRPD; settings: for Static Stability 40° C./75% RH: dried screening sample, solid form after 7 and 36 days at 40° C./75% RH
[4] = Gravimetric vapour sorption (GVS) isotherm, hygroscopicity; settings: for weight increase (GVS): increase in relative humidity from about 0 to about 90% relative humidity
[5] = Competitive slurry/water activity experiments with Forms 1 and 6
Source text: IPA/water and ACN/water were selected as suitable solvents for the competitive slurry/water activity experiments. These solvent mixtures were selected to have some solubility of the Compound 1 free base and to be able to obtain a wide range of water activities by varying the water content. IPA/water was selected as this solvent often formed solvated forms of the free base and ACN/water was selected as this solvent produced only Form 1 of the free base during the polymorph screening experiments.
There was one exception to this—the IPA/water sample at 50° C. and at a water activity of 0.8 gave Form 1 rather than Form 4.

[6] = Kinetic solubility after 30 min in water and in 0.1M HCl; settings: for solubility kinetic at 30 min: thermodynamic from solid, cocrystal, in duplicate, read-out: 30 min Kinetic solubility (pH)
Source text: as §1

[7] = Solubility screen: solubility assessment of amorphous Compound 1 in solvents; settings: thermodynamic from solid, room temperature
Description: Amorphous Compound 1 (30 mg) was weighed out and 100 μl (˜3 vols) solvent was added at room temperature. Many samples initially dissolved but precipitated back out again after stirring for a few minutes. It was assumed that these samples had crystallized, so additional portions of solvent were added to determine the solubility of the crystalline material. See Table 1 for solubility assessment of amorphous Compound 1. […]

[8] = after 63 days, no change in form but loss of crystallinity
[9] = 7 d storage at 40° C./75% RH and at 25° C./97% RH, result stated for both conditions

Hygroscopicity by GVS ([1]; 0-90% RH): non-
GVS total weight change 0-90% RH ([1]; 0-90% RH): ~0.5 wt %
Static stability at 25° C./96% RH, XRPD ([2]; after 7 days): no change after 7 days,
Static stability at 40° C./75% RH, XRPD ([2]; after 7 days): no change after 7 days,
Static stability at 25° C./96% RH, form by XRPD [2, 8]: after 63 days no change
Static stability at 40° C./75% RH, form by XRPD [2, 8]: after 63 days no change
SMILES: C[C@H](NC(=O)c1c(N)nn2cccnc12)c1cc2cccc(C#Cc3cnn(C)c3)c2c(=O)n1-c1ccccc1 [Form 1 reference]

stability after storage ([3]; 25° C./96% RH for more than 9 months): stable
stability after storage ([3]; 40° C./75% RH for more than 9 months): stable
Static Stability 40° C./75% RH [3]: no change after 7
hygroscopicity [4]: non-hygroscopic
weight increase (GVS) [4]: about 0.5%
Relative stability of forms in ACN/water slurries ([5]; all ACN/water experiments except 50° C. and 5° C. at water activity 0.8): most stable form
Relative stability of forms in IPA/water slurries ([5]; all temperatures (5, 25, 50° C.) and water activities (0.2-0.8), slurried 4 days): more stable than Form 6
SMILES: C[C@H](NC(=O)c1c(N)nn2cccnc12)c1cc2cccc(C#Cc3cnn(C)c3)c2c(=O)n1-c1ccccc1 [Form 1, (S)-2-amino-N-(1-(8-((1-methyl-1H-pyrazol-4-yl)ethynyl)-1-oxo-2-phenyl-1,2-dihydroisoquinolin-3-yl)ethyl)pyrazolo[1,5-a]pyrimidine-3-carboxamide]

Static Stability 40° C./75% RH [3]: amorphous after 7
hygroscopicity [4]: non-hygroscopic
weight increase (GVS) [4]: about 1.3%
SMILES: C[C@H](NC(=O)c1c(N)nn2cccnc12)c1cc2cccc(C#Cc3cnn(C)c3)c2c(=O)n1-c1ccccc1 [Form 2, (S)-2-amino-N-(1-(8-((1-methyl-1H-pyrazol-4-yl)ethynyl)-1-oxo-2-phenyl-1,2-dihydroisoquinolin-3-yl)ethyl)pyrazolo[1,5-a]pyrimidine-3-carboxamide]

Static Stability 40° C./75% RH [3]: remains Form 3
SMILES: C[C@H](NC(=O)c1c(N)nn2cccnc12)c1cc2cccc(C#Cc3cnn(C)c3)c2c(=O)n1-c1ccccc1 [Form 3, (S)-2-amino-N-(1-(8-((1-methyl-1H-pyrazol-4-yl)ethynyl)-1-oxo-2-phenyl-1,2-dihydroisoquinolin-3-yl)ethyl)pyrazolo[1,5-a]pyrimidine-3-carboxamide]

Static Stability 40° C./75% RH [3]: remains Form 4
SMILES: C[C@H](NC(=O)c1c(N)nn2cccnc12)c1cc2cccc(C#Cc3cnn(C)c3)c2c(=O)n1-c1ccccc1 [Form 4, (S)-2-amino-N-(1-(8-((1-methyl-1H-pyrazol-4-yl)ethynyl)-1-oxo-2-phenyl-1,2-dihydroisoquinolin-3-yl)ethyl)pyrazolo[1,5-a]pyrimidine-3-carboxamide]

weight increase (GVS) [4]: about 14%
Hygroscopicity by GVS ([1]; 0-90% RH): hygroscopic. Large steps 40-60%
GVS total weight change 0-90% RH ([1]; 0-90% RH): 15.0 wt %
Static stability at 40° C./75% RH, XRPD ([2]; after 7 days): subtle changes in XRPD after
Static stability at 25° C./96% RH, XRPD ([2]; after 26 days): no change in XRPD after 26
Static stability at 40° C./75% RH, XRPD ([2]; after 26 days): no further changes after 26
Relative stability of forms in ACN/water slurry ([5]; 5° C., ACN/water, water activity 0.8 (15 vol % water)): more stable than Form 1
SMILES: C[C@H](NC(=O)c1c(N)nn2cccnc12)c1cc2cccc(C#Cc3cnn(C)c3)c2c(=O)n1-c1ccccc1 [Form 6, (S)-2-amino-N-(1-(8-((1-methyl-1H-pyrazol-4-yl)ethynyl)-1-oxo-2-phenyl-1,2-dihydroisoquinolin-3-yl)ethyl)pyrazolo[1,5-a]pyrimidine-3-carboxamide]

Static Stability 40° C./75% RH [3]: remains Form 7
SMILES: C[C@H](NC(=O)c1c(N)nn2cccnc12)c1cc2cccc(C#Cc3cnn(C)c3)c2c(=O)n1-c1ccccc1 [Form 7, (S)-2-amino-N-(1-(8-((1-methyl-1H-pyrazol-4-yl)ethynyl)-1-oxo-2-phenyl-1,2-dihydroisoquinolin-3-yl)ethyl)pyrazolo[1,5-a]pyrimidine-3-carboxamide]

weight increase (GVS) [4]: about 3.7%
GVS hysteresis [1]: No hysteresis
GVS weight gain from 0-90% RH ([1]; 0-90% RH): 3.67%
Hygroscopicity by GVS ([1]; 0-90% RH): moderately hygroscopic
GVS weight gain ([1]; from 0-90% RH, cycle 2): 3.67%
HPLC purity change after 7 d 40° C. 75% RH 25° C. 97% RH [2, 9]: < 3% for both.
XRPD after 7 d 40° C. 75% RH 25° C. 97% RH [2, 9]: no change
XRPD after 7 d at 25° C. 97% RH ([2]; after 7 d): no changes
Static stability at 40° C./75% RH, XRPD ([2]; after 7 days): no changes
Stability at 25° C./96% RH, purity and XRPD ([2]; after a week): no significant change
Stability at 40° C./75% RH, purity and XRPD ([2]; after a week): no significant change
solubility kinetic at 30 min ([6]; 0.1M HCl, pH 1.3, simulated gastric fluid, in 0.1M HCl, pH 1.3): 0.02 mg/mL (≈ 0.0378 mM)
Kinetic solubility in 0.1M HCl compared with the free base ([6]; after 30 min, 0.1M HCl): very similar to the free base solubility
Kinetic solubility in water compared with the free base ([6]; after 30 min, water): slightly higher solubility values
Kinetic solubility with respect to the free base ([6]; summary statement): slight improve in solubility
solubility kinetic at 30 min ([6]; water, pH 2.9, water, in water, pH 2.9, 3.0): 0.04 mg/mL (≈ 0.0757 mM)
SMILES: C[C@H](NC(=O)c1c(N)nn2cccnc12)c1cc2cccc(C#Cc3cnn(C)c3)c2c(=O)n1-c1ccccc1 [Form P1C3]

solubility ([7]; organic solvent or mixture, in 1,2-Dimethoxyethane): < 17 mg/mL
solubility ([7]; organic solvent or mixture, in 1,4-Dioxane): < 17 mg/mL
solubility ([7]; organic solvent or mixture, in 1-Propanol): < 17 mg/mL
solubility ([7]; organic solvent or mixture, in 2-Methoxyethanol): ≥ 333 mg/mL
solubility ([7]; organic solvent or mixture, in 2-Methyl-1-propanol): < 17 mg/mL
solubility ([7]; organic solvent or mixture, in 2-Propanol): < 17 mg/mL
solubility ([7]; organic solvent or mixture, in Acetone): < 17 mg/mL
solubility ([7]; organic solvent or mixture, in Acetonitrile): < 17 mg/mL
solubility ([7]; organic solvent or mixture, in Chloroform): < 17 mg/mL
solubility ([7]; organic solvent or mixture, in Cyclohexane): < 17 mg/mL
solubility ([7]; organic solvent or mixture, in Dichloromethane): 17 to 20 mg/mL (≈ 32.2 to 37.8 mM)
solubility ([7]; organic solvent or mixture, in Dimethyl sulfoxide): ≥ 333 mg/mL
solubility ([7]; organic solvent or mixture, in Ethanol): < 17 mg/mL
solubility ([7]; organic solvent or mixture, in Ethyl acetate): < 17 mg/mL
solubility ([7]; organic solvent or mixture, in Ethyleneglycol): < 17 mg/mL
solubility ([7]; organic solvent or mixture, in IPA/Water (95/5 v/v)): < 17 mg/mL
solubility ([7]; organic solvent or mixture, in Isopropyl acetate): < 17 mg/mL
solubility ([7]; organic solvent or mixture, in MEK): < 17 mg/mL
solubility ([7]; organic solvent or mixture, in MIBK): < 17 mg/mL
solubility ([7]; organic solvent or mixture, in Methanol): < 17 mg/mL
solubility ([7]; organic solvent or mixture, in N,N-Dimethylformamide): ≥ 333 mg/mL
solubility ([7]; organic solvent or mixture, in Nitromethane): 25 to 33 mg/mL (≈ 47.3 to 62.4 mM)
solubility ([7]; organic solvent or mixture, in THF/Water (95/5 v/v)): < 17 mg/mL
solubility ([7]; organic solvent or mixture, in Tetrahydrofuran): < 17 mg/mL
solubility ([7]; organic solvent or mixture, in Toluene): < 17 mg/mL
solubility ([7]; organic solvent or mixture, in n-Heptane): < 17 mg/mL
solubility ([7]; organic solvent or mixture, in tert-Butylmethyl ether): < 17 mg/mL
solubility ([7]; in Water): < 17 mg/mL
SMILES: C[C@H](NC(=O)c1c(N)nn2cccnc12)c1cc2cccc(C#Cc3cnn(C)c3)c2c(=O)n1-c1ccccc1 [amorphous Compound 1, (S)-2-amino-N-(1-(8-((1-methyl-1H-pyrazol-4-yl)ethynyl)-1-oxo-2-phenyl-1,2-dihydroisoquinolin-3-yl)ethyl)pyrazolo[1,5-a]pyrimidine-3-carboxamide]
